Source: patent US20050256301A1 (The University of Queensland, priority 1998, published 2005)
Like-named read-outs stand apart in the source and are kept apart here.

Key:
[1] = molecular target: endoproteinase Glu-C (Endo Glu-C) (Staphylococcus aureus, UniProt P0C1U8); conditions: pH 8
[2] = human, plasma
P/Q type Ca channels = P/Q type Ca channels (Rattus norvegicus, UniProt P54282); assay type: binding
[3] = molecular target: T1, N-type voltage-sensitive calcium channels (Rattus norvegicus, UniProt Q02294); assay type: binding
T1 construct: Rats were sacrificed by cervical dislocation and their brains removed and immediately frozen in liquid nitrogen; from tissue; host or cells: rat brain membrane
T1 sequence (Q02294 whole entry, looked up): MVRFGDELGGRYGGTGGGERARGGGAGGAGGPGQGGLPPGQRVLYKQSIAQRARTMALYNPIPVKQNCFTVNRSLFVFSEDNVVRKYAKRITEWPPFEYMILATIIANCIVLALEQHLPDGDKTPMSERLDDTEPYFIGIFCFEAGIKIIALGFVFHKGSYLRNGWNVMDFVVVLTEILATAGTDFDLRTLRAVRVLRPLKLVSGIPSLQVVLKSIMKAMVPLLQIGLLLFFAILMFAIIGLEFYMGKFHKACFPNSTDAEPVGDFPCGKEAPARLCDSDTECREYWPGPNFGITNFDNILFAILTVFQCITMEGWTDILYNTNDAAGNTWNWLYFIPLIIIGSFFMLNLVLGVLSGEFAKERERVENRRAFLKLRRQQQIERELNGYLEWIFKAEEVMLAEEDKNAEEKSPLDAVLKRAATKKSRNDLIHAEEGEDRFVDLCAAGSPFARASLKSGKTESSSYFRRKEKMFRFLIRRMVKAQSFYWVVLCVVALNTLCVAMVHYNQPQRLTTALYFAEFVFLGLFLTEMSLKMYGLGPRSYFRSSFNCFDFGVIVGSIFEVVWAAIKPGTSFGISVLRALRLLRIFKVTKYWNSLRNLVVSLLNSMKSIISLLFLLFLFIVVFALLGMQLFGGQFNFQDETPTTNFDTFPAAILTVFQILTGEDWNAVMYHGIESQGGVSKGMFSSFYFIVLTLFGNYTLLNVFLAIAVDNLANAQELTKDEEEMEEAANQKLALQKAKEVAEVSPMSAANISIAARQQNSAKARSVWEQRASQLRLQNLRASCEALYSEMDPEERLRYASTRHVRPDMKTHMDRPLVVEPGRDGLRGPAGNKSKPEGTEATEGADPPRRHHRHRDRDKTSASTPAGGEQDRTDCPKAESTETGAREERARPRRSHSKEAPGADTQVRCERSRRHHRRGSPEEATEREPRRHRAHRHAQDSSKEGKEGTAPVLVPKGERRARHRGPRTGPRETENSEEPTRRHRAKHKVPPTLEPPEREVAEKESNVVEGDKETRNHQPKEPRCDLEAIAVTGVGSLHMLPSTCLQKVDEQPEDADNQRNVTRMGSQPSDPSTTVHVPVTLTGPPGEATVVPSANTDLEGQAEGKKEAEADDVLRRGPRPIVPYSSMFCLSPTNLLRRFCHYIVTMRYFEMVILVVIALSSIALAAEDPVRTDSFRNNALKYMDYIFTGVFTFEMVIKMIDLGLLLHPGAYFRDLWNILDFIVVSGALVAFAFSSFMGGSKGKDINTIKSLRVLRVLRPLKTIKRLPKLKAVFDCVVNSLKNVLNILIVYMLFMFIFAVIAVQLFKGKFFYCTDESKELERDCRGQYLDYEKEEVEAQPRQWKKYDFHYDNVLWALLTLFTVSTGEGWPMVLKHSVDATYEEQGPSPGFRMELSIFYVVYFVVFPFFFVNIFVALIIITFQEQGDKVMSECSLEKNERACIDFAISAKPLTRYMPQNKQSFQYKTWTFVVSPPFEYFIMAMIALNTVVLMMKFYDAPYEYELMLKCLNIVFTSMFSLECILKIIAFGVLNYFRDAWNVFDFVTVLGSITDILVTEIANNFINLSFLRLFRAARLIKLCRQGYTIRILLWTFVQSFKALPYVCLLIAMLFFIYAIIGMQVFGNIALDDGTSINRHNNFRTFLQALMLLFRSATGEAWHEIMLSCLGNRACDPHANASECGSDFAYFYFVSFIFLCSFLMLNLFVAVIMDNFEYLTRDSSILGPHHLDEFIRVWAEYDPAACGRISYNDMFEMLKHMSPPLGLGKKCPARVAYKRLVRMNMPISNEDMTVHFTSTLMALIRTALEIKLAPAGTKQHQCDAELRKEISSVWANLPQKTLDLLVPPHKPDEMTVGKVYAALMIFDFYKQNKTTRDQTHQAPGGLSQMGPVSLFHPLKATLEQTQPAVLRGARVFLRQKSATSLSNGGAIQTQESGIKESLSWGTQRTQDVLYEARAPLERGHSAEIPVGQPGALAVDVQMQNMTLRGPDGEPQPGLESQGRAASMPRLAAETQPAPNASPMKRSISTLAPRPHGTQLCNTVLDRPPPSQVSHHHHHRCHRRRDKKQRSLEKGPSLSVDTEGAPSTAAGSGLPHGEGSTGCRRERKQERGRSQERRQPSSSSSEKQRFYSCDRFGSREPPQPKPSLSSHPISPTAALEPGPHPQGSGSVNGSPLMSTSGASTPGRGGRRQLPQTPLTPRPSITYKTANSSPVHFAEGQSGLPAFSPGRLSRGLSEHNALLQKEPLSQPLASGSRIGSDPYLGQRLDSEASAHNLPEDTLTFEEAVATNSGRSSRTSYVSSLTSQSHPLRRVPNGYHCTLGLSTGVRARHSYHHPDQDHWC

[4] = system: bovine adrenal chromaffin cells; assay type: cell-based
[5] = molecular target: human noradrenaline transporter (NET) (human) (UniProt P23975); assay: displacement of [3H]nisoxetine from COS-7 hNET membranes
Chain of human noradrenaline transporter (NET) (human) (P23975 whole entry): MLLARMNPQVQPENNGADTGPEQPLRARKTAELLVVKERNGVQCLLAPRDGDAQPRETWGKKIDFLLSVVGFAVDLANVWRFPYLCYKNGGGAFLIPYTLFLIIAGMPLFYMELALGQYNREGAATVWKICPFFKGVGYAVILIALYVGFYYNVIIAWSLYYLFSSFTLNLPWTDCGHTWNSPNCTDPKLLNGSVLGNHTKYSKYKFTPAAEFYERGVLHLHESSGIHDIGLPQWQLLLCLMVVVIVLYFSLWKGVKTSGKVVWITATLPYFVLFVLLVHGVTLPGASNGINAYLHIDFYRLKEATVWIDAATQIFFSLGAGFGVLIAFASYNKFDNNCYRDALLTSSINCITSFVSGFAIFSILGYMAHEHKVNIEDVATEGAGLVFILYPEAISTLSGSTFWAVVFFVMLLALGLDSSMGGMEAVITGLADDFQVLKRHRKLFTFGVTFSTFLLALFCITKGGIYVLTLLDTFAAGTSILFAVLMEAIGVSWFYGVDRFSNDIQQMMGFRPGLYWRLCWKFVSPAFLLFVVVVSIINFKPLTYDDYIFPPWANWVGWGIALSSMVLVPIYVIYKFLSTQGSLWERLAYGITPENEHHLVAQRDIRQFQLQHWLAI

[6] = molecular target: human noradrenaline transporter (NET) (human) (UniProt P23975); assay: as above; remark: listed apart in the source
[7] = molecular target: N-type voltage-sensitive calcium channel (rat brain membrane) (rat) (UniProt Q02294)

Chain of P/Q type Ca channels (P54282 whole entry, looked up): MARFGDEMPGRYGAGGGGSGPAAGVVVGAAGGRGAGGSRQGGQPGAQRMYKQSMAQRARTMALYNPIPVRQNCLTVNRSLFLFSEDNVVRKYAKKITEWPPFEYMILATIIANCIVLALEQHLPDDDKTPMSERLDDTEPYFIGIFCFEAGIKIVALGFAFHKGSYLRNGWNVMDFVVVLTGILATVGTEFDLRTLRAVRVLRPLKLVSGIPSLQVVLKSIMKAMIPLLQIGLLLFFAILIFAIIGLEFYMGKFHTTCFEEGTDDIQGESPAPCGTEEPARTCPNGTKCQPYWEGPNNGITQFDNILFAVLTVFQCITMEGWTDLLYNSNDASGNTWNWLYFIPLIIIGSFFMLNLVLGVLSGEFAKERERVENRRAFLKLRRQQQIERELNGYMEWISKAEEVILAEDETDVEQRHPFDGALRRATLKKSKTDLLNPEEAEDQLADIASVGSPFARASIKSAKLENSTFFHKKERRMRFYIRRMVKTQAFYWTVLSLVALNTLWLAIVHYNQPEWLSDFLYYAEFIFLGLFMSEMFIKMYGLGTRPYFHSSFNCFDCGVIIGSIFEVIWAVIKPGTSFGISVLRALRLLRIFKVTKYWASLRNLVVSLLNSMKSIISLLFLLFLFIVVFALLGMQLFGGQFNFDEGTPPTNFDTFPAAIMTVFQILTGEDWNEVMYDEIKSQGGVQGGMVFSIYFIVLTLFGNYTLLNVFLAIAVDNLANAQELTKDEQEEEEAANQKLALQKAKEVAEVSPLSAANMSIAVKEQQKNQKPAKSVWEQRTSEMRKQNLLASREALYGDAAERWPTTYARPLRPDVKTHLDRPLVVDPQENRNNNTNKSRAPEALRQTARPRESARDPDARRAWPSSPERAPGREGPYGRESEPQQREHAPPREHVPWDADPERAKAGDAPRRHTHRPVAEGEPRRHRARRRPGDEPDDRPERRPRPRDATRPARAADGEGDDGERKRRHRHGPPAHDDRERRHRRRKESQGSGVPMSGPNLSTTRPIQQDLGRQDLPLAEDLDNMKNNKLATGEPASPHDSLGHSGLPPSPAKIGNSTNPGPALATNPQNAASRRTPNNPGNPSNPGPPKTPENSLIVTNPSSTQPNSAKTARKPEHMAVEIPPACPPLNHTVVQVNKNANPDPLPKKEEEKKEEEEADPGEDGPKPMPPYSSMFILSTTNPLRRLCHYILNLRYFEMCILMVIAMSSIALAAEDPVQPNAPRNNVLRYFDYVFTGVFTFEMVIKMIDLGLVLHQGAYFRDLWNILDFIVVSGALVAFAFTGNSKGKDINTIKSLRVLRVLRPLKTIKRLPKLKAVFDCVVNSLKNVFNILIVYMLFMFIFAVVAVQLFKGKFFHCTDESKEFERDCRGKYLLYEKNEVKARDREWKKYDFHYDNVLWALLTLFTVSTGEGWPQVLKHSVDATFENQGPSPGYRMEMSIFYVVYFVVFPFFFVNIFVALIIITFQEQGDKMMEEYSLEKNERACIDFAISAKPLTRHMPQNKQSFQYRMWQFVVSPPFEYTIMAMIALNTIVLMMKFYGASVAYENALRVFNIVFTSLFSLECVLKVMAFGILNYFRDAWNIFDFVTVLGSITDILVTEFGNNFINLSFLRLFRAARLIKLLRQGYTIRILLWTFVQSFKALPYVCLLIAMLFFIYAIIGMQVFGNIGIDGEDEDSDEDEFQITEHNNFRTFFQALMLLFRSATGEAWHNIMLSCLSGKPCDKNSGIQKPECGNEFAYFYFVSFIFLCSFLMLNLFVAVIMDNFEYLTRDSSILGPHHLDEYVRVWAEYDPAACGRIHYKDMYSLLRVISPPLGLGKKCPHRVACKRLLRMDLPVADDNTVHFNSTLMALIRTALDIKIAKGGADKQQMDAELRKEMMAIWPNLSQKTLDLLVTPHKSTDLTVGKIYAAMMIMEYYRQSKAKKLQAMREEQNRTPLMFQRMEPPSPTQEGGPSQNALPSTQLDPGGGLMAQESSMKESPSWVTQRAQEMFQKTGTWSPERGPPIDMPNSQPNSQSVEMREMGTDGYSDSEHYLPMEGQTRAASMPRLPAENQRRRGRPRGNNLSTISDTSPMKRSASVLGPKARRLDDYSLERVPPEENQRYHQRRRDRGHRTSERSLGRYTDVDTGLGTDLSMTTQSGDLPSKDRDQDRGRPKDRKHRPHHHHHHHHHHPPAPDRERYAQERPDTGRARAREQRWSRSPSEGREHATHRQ

With `CC(C)C[C@@H]1NC(=O)[C@H](CC(N)=O)NC(=O)[C@H](CO)NC(=O)[C@H](Cc2cnc[nH]2)NC(=O)[C@H](CCC(=O)O)NC(=O)[C@H](CC(C)C)NC(=O)[C@H](Cc2cnc[nH]2)NC(=O)[C@@H]2CSSC[C@H](NC(=O)CN)C(=O)N[C@@H](CSSC[C@@H](C(N)=O)NC1=O)C(=O)N[C@@H](CO)C(=O)N[C@@H](CC(N)=O)C(=O)N1CCC[C@H]1C(=O)N[C@@H](C(C)C)C(=O)N2` [MII, α-conotoxin MII] the half-life [1] was about 10 h and the half-life [2] was about 16 h.

In the case of “CKGKGAKCSRLMYDCCTGSCRSGKCTRNG [cyclo-MVIIA 2]”, the “ability to displace 125I-MVIIC” value (P/Q type Ca channels) is reported as “did not show any ability to displace” and the “selectivity N-type over P/Q-type channel” value (P/Q type Ca channels) is reported as “selectivity for the N-type channel over the P/Q-type channel”.

With “CKGKGAKCSRLMYDCCTGSCRSGKCTRNGLPG [cyclo-MVIIA 1]” the EC50 [3] was 85 nM.

In the case of “GLPVCKGKGAKCSRIMYDCCTGSCRSGKCTRG [SEQ ID NO. 7]”, the EC50 [3] is reported as 1.08 nM.

For “Gly Cys Cys Ser Asp Pro Arg Cys Asn Tyr Asp His Pro Glu Ile Cys Gly Gly Ala Ala Gly Gly [cVc1.1-6]”, the “inhibition of nicotine-evoked catecholamine release, activity relative to Vc1.1” value [4] was “identical, within experimental error, to that of acyclic Vc1.1”.

For “[Sec5,10]MrIA-NH2 (peptide; other documents disagree on this pair)”, the EC50 [5] was 1380 nM and the log EC50 [5] was -5.86.

In the case of “χ-conotoxin MrIA-NH2 (peptide; other documents disagree on this pair)”, the EC50 [6] is reported as 1470 nM, the EC50 [5] is reported as 1810 nM and the log EC50 [5] is reported as -5.74.

With ω-conotoxin MVIIA (peptide) the EC50 [7] was 0.044 nM.
